Reference: US6030980A, “Agent for the treatment of infections” (priority 1994, dated 2000)

Assays:
[1] = system: herpes simplex virus type I; test: animal or person; type: in vivo, BALB/c male mice; settings: thermally injured mice, HSV type I 3×10^3 PFU/kg i.p., oral 1 μg/kg of aconite-alkaloid; for responders at 0.001 mg/kg: Mus musculus, 600 h, read-out: survival rate; for average survival days: 25 days
[2] = system: suppressor cell activities induced in thermally injured mice; type: cell-based, BALB/c mice; settings: 1 μg/kg of aconite-alkaloid given twice to contrasuppressor cell donors; normal model 12413 ± 1438, susceptibility model 2650 ± 70
[3] = Acute toxicity of aconite-alkaloids; settings: in vivo
[4] = system: AIDS virus (LP-BM5 virus); test: Survival of opportunistic infection model mice infected with AIDS virus (LP-BM5 virus) (Experimental Example 3); type: in vivo; settings: 1 μg/kg oral, observed for 150 days, saline 0%
Protocol: Mice as opportunistic infection model inoculated intraperioneally with 0.1 ml/mouse of a culture supernatant of AIDS virus (LP-BM5 virus) infected SC-1 cells were orally given benzoylmesaconine or physiological saline.

[5] = system: suppressor cell activities; test: Contrasuppressor cell activities in MLTR, suppressor cells from LP-BM5 virus infected mice; type: cell-based; settings: 1 μg/kg, suppressor cells from mice 110 days after infection with LP-BM5 virus
Protocol: Contrasuppressor cell activities, i.e. cells activities suppressing the suppressor cell activities induced in thermally injured mice were determined in mixed lymphocyte tumor cell reaction (MLTR) by mixing and incubating the following cells for 5 days in a 96-wells round-bottom microplate.
Reaction cells: Spleen mononuclear cells (referred to hereinafter as SMNCs) (5.0×10^4 cells/well) obtained from normal BALB/c mice.
Stimulator cells: EL-4 tumor cells (5.0×10^4 cells/well).
Suppressor cells: SMNCs (2.5×10^5 cells/well) obtained from the model of increased susceptibility to infections. […]
Before incubation, the cells except for the reaction cells were treated with 40 μg/ml of mitomycin C solution at 37° C. for 30 minutes. Twenty-four hours before the conclusion of 3-days incubation, 0.5 μCi/well of ^3 H-thymidine was added to the well, and the amount of ^3 H-thymidine incorporated into the reaction cells was determined in a liquid scintillation counter to evaluate the contrasuppressor cell activities induced against the suppressor cell activities by administration of the active ingredient of the present agent.
The contrasuppressor cell activities induced against suppressor cell activities by administration of benzoylmesaconine was evaluated in the same manner as in "(3) Measurement of contrasuppressor cell activities" in Experimental Example 1. […]

cytomegalovirus (CMV) = test: Survival of thermally injured mice infected with cytomegalovirus (Experimental Example 7); settings: CMV 2.5×10^3 PFU/mouse i.v., 10 μg/kg/day oral, 25 days
CMV = settings: SCID mice, 10 μg/kg/day oral
[6] = system: herpes simplex virus type I; test: Survival of mice infected with a lethal dose of herpes simplex virus type I (Experimental Example 2); type: in vivo, BALB/c mice; settings: HSV type I 3×10^5 PFU/kg i.p., 10 μg/kg oral, before and after infection
Protocol: In this example, 7-week-old BALB/c mice were infected intraperioneally with a lethal dose (3×10^5 PFU/kg) of herpes simplex virus type I. Two days before the infection, 1 day and 4 days after the infection, the active ingredient of the present agent (10 μg/kg) or physiological saline (control) was orally administered through a stomach probe into the mice. Twenty-five days after the infection, their survival rate was determined to evaluate the action of the active ingredient. In this experiment, the experimental mice were given the active ingredient of the present agent before and after infection with the virus to evaluate its action mainly on the prevention and treatment of the virus infection.

[7] = J. Pharm. Dyu.7, 836-848 (1984); cited from earlier work
[8] = twenty-five days after infection

For `COCC12CN(C)C3C4C(OC)C1C3(C(OC)CC2O)C1CC2(O)C(OC)C(=O)C4C1C2OC(=O)c1ccccc1` (stereo not drawn) [16-epi-pyromesaconitine], the responders at 0.001 mg/kg [1, 8] was 80%, the average survival days [1] was over 22.4 days and the “incorporation of ^3 H-thymidine” value [2] was 16891 ± 2232 CPM ± SE. It also gave an LD50 [3] of 20 to 500 mg/kg.
For `COCC12CCC(OC)C34C5CC6(O)C(OC)C(O)C(O)(C5C6OC(=O)c5ccccc5)C(C(OC)C13)C4N(C)C2` (centres unmarked) [benzoylhypaconine], the responders at 0.001 mg/kg [1, 8] was 80%, the average survival days [1] was over 22.4 days and the “incorporation of ^3 H-thymidine” value [2] was 21319 ± 903 CPM ± SE. For the same compound, the LD50 [3] was 20 to 500 mg/kg.
In the case of `COCC12CN(C)C3C4C(OC)C1C3(C(OC)CC2O)C1CC2(O)C(O)C1C4(O)C(O)C2OC` (centres unmarked) [mesaconine], the responders at 0.001 mg/kg [1, 8] is reported as 85%, the average survival days [1] is reported as over 23.1 days and the “incorporation of ^3 H-thymidine” value [2] is reported as 15791 ± 2778 CPM ± SE. The LD50 [3] was 20 to 500 mg/kg.
In the case of `C=C1C2CCC3(C4CC5C6(C)CCCC5(C(O4)N(CCO)C6)C3C2)C1O` (centres unmarked) [ajaconine], the responders at 0.001 mg/kg [1, 8] is reported as 80%, the average survival days [1] is reported as over 22.3 days and the “incorporation of ^3 H-thymidine” value [2] is reported as 17655 ± 1879 CPM ± SE. It also gave an LD50 [3] of 20 to 500 mg/kg.
With `CCN1CC2(COC)CCC(O)C34C5CC6C(OC)CC(O)(C5C6O)C(C(OC)C23)C14` (centres unmarked) [neoline] the responders at 0.001 mg/kg [1, 8] was 80%, the average survival days [1] was over 22.3 days and the “incorporation of ^3 H-thymidine” value [2] was 13744 ± 526 CPM ± SE. It also gave an LD50 [3] of 20 to 500 mg/kg.
In the case of `CCN1CC2(COC)C(O)CC(OC)C34C5CC6(O)C(OC)C(=O)C(C5C6OC(=O)c5ccccc5)C(C(OC)C23)C14` (stereo not drawn) [16-epi-pyraconitine], the responders at 0.001 mg/kg [1, 8] is reported as 70%, the average survival days [1] is reported as over 21.2 days and the “incorporation of ^3 H-thymidine” value [2] is reported as 15654 ± 1209 CPM ± SE. It also gave an LD50 [3] of 20 to 500 mg/kg.
In the case of `CCN1CC2(COC)C(O)CC(OC)C34C5CC6(O)C(OC)C(O)C(O)(C5C6OC(=O)c5ccccc5)C(C(OC)C23)C14` (centres unmarked) [benzoylaconine], the responders at 0.001 mg/kg [1, 8] is reported as 80%, the average survival days [1] is reported as over 22.5 days and the “incorporation of ^3 H-thymidine” value [2] is reported as 16140 ± 1738 CPM ± SE. For the same compound, the LD50 [3] was 20 to 500 mg/kg.
For `COCC12CN(C)C3C4C(OC)C1C3(C(OC)CC2O)C1CC2(O)C(OC)C(O)C4(O)C1C2OC(=O)c1ccccc1` (centres unmarked) [benzoylmesaconine], the responders at 0.001 mg/kg [1, 8] was 85%, the average survival days [1] was over 21.5 days and the “incorporation of ^3 H-thymidine” value [2] was 14754 ± 1832 CPM ± SE. For the same compound, the survival rate [4] was 80%, the suppressing rate ([5]; saline 81%) was 4% and the “incorporation of ^3 H-thymidine” value ([5]; saline 1,730 ± 289) was 8,826 ± 535 CPM ± SE. For the same compound, the LD50 [3] was 20 to 500 mg/kg, the survival rate (cytomegalovirus (CMV); saline 0%) was 100% and the average survival days (cytomegalovirus (CMV); saline 12.4) was over 22.1 days. For the same compound, the survival rate (CMV; CMV 2.5×10^3 PFU/mouse, saline 0%) was 100% and the “protective effect on CMV” value (CMV) was “protective effect”.
In the case of `CCCCC[C@H](O)CC(=O)CCc1ccc(O)c(OC)c1` [gingerol], the average survival days ([6]; 25 days) is listed as over 24.4 days, the survival rate [6, 8] is listed as 90% and the “acute toxicity LD50” value [7] is listed as “about 250 mg/kg”.
In the case of `C=C1[C@H]2C[C@@H]3[C@H]4N5C[C@@]6(C)[C@H]7[C@@H]5C[C@]3([C@@H]1O)[C@@](O)(C2)[C@]74C[C@@H](OC(=O)c1ccccc1)[C@@H]6O` [ignavine], the average survival days [1] is reported as over 21.9 days, the survival rate [1, 8] is reported as 75% and the “incorporation of ^3 H-thymidine” value [2] is reported as 12831 ± 2255 CPM ± SE.
For `COCC12CCC(OC)C34C5CC6(O)C(O)C5C(O)(C(O)C6OC)C(C(OC)C13)C4N(C)C2` (centres unmarked) [hypaconine], the responders at 0.001 mg/kg [1, 8] was 85%, the average survival days [1] was over 23.1 days and the “incorporation of ^3 H-thymidine” value [2] was 14111 ± 2232 CPM ± SE. It also gave an LD50 [3] of 20 to 500 mg/kg.
For `CCN1CC2(COC)C(O)CC(OC)C34C5CC6(O)C(OC)C(O)C(O)(C5C6OC(=O)c5ccc(OC)cc5)C(C(OC)C23)C14` (centres unmarked) [14-anisoylaconine], the responders at 0.001 mg/kg [1, 8] was 80%, the average survival days [1] was over 22.5 days and the “incorporation of ^3 H-thymidine” value [2] was 12720 ± 1578 CPM ± SE. The LD50 [3] was 20 to 500 mg/kg.
